# Patent US9492405B2, “Use of fenoterol and fenoterol analogues in the treatment of glioblastomas and astrocytomas” (The United States of America, as represented by the …, priority 2010, dated 2016)
# Several values for one entry are separate records, joined by “and”; a condition that tells them apart may be missing. Equal entries are not always repeated.
# Assays:
# 1321N1 xenograft = 1321N1 xenograft implanted in the flank of SKID mice; assay type: in vivo; conditions: IP twice a day; day 3-10 30 mg/kg/day, day 10-42 50 mg/kg/day
# in vivo = conditions: rat, IV 5 mg/kg
# Description: Dose calculations (mg/kg) were based on the individual body weight measured on the day of treatment. Study duration for pharmacokinetic studies was 6 hours. […] Urine was collected for 0-6 hours and 6 to 24 hours from 3 rats in each treatment group.
# In the two-compartment model, the drug distributes into two compartments, the central compartment and the tissue, or peripheral compartment. The central compartment represents the blood, extracellular fluid, and highly perfused tissues. The drug distributes rapidly and uniformly in the central compartment. A second compartment, known as the tissue or peripheral compartment, contains tissues in which the drug equilibrates more slowly. Drug transfer between the two compartments is assumed to take place by first-order processes.
# The following abbreviations are utilized in Table 4 below: alpha—macro rate constant associated with the distribution phase; beta—macro rate constant associated with the elimination phase; A, B—zero time intercept associated with the alpha phase and beta phase, respectively; AUC—area under the curve; T1/2 (K10)—half-life associated with the rate constant K10; K10—elimination rate—rate at which the drug leaves the system from the central compartment; K12—rate at which drug enters tissue compartment from the central compartment; K21—rate at which drug enters central compartment from tissue compartment; V1—volume of distribution of the central compartment; V2—volume of distribution of the tissue compartment; Vss—volume of distribution at steady state; and Cl—clearance.
# [1] = Brain-to-plasma distribution of [3H]-(R,R)-methoxyfenoterol after single IV dose; assay type: in vivo; conditions: rat, IV
# Description: An overview of the research study design for evaluating the brain-to-plasma distribution of [^3H]
# (specific activity 57 Ci/mmol); vehicle was sterile saline, 0.9% sodium chloride, USP. Dose formulations were prepared on the day of the study. The amount of radioactivity in the dose formulation was determined by liquid scintillation. The study lasted for an hour and radioactivity levels in plasma and brain tissue were evaluated at the conclusion of the study. Approximately 5 mls of whole blood was collected. Blood samples were collected via cardiac puncture, transferred into a tube containing K3EDTA as the anticoagulant and kept on wet ice until processed to plasma. To generate plasma, samples were centrifuged within 15 minutes of collection at 2,500 RPM for 15 minutes at room temperature. Plasma was divided equally into three labeled cryovials and stored on ample dry ice until transferred to a freezer set at ≦−20° C. for storage until analysis. Duplicate aliquots were weighed and then combined with scintillation cocktail. The [^3H] radioactivity was determined on a liquid scintillation counter. Brain samples were snap frozen in liquid nitrogen and stored at ≦−70° C. until analysis. Whole brain tissue was homogenized and the weight of the homogenate was determined. Duplicate aliquots from the homogenate were weighed, solubilized and then combined with scintillation cocktail. The [^3H] radioactivity was determined on a liquid scintillation counter.
# 1321N1 cells = assay: Cell cycle distribution by flow cytometry in 1321N1 cells; conditions: 1321N1 cells
# β2-AR = β2-AR (Homo sapiens (Human), UniProt P07550); conditions: 1321N1; basal below 0.5 nmol/mg protein
# β2-AR, sequence (P07550 whole entry): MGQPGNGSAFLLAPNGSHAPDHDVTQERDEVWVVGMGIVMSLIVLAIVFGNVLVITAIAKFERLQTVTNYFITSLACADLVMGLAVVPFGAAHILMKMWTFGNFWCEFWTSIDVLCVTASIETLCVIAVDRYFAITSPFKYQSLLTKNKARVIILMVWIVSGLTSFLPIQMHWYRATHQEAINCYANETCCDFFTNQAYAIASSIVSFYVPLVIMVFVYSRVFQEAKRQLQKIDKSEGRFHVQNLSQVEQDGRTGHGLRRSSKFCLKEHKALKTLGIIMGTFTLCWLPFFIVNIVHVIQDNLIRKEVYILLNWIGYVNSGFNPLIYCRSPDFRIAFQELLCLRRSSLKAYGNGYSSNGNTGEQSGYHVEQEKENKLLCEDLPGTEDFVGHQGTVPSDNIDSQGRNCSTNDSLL
smiles,measurement,setting,value
"COc1ccc(C[C@@H](C)NC[C@H](O)c2cc(O)cc(O)c2)cc1.O=C(O)/C=C/C(=O)O [(R,R)-2, (R,R)-(−)-1-p-Methoxyphenyl-2-(β-3′,5′-dihydroxy-phenyl-β-oxy)ethylaminopropane Fumarate]",growth of 1321N1 xenograft,1321N1 xenograft,inhibits astrocytoma growth in vivo
same,AUC,in vivo,96.1011 µg·min/mL
same,Cl,in vivo,15.40 mL/min
same,K12,in vivo,0.1309 min⁻¹
same,K21,in vivo,0.0203 min⁻¹
same,T1/2 (K10),in vivo,13.23 min
same,Vss,in vivo,2189.02 mL
same,"Plasma concentration, Average",in vivo; 5 min,2.12 µg/mL
same,"Plasma concentration, Average",in vivo; 15 min,0.58 µg/mL
same,"Plasma concentration, Average",in vivo; 30 min,0.41 µg/mL
same,"Plasma concentration, Average",in vivo; 60 min,0.26 µg/mL
same,"Plasma concentration, Average",in vivo; 120 min,0.17 µg/mL
same,"Plasma concentration, Average",in vivo; 240 min,0.12 µg/mL
same,"Plasma concentration, Average",in vivo; 300 min,0.07 µg/mL
same,Individual plasma concentration,"in vivo; 300 min, individual rats, listed as (R,R)-methoxyfenoterol",0.06 ug/ml and 0.07 ug/ml (3×) and 0.09 ug/ml
same,"Plasma concentration, Average",in vivo; 360 min,0.06 µg/mL
same,V1,in vivo; central compartment,294.01 mL
same,K10,in vivo; elimination rate,0.0524 min⁻¹
same,V2,in vivo; tissue compartment,1895.00 mL
same,Alpha,in vivo; two-compartment open model,0.1982 min⁻¹
same,Beta,in vivo; two-compartment open model,0.0054 min⁻¹
same,A,"in vivo; two-compartment open model, zero time intercept alpha phase",4.6437 µg/mL
same,B,in vivo; zero time intercept beta phase,0.3900 µg/mL
same,passage through the blood brain barrier,[1],capable of passing through the blood brain barrier
"C=C[C@@]1(C)CC(=O)[C@]2(O)[C@@]3(C)[C@@H](O)CCC(C)(C)[C@@H]3[C@H](O)[C@H](OC(C)=O)[C@@]2(C)O1 [forskolin, reference compound]",cell cycle arrest,1321N1 cells,induced cell cycle arrest in G1 phase
same,intracellular concentration of cAMP after treatment,β2-AR,~4 nmol/mg protein
